Data: US9260418B2, “Pyranyl aryl methyl benzoquinolinone M1 receptor positive allosteric modulators” (Merck Sharp & Dohme Corp., priority 2009, dated 2016)

The compounds below were run against T1, acetylcholine muscarinic M1 receptor (Homo sapiens, UniProt P11229) (assay: muscarinic FLIPR intracellular calcium assay, potentiation of EC20 acetylcholine in CHOnfat/hM1 cells). Conditions: inflection point calculated from FLIPR values, 4 min preincubation, then EC20 acetylcholine (3 nM final), read-out: IP Value.
T1 construct: expressed in transfected cells; host or cells: CHOnfat cells (CHO), under Geneticin selection; b382 calls them CHOK1/hM1
T1 sequence (P11229 1-460): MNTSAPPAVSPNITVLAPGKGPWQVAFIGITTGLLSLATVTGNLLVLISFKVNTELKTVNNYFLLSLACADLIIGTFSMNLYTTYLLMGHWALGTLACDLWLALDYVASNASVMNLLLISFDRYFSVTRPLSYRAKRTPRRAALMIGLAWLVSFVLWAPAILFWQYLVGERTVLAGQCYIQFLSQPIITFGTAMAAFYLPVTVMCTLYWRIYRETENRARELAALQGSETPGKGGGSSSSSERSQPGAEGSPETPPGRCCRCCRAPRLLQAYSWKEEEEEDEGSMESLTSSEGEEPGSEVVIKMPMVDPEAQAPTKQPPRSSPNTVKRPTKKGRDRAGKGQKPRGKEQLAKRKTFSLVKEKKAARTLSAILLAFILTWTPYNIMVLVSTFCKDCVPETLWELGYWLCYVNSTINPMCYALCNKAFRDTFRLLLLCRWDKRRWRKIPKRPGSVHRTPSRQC
Assay type: cell-based
Experimental: The assay studies the effect of one or several concentrations of test compounds on basal or acetylcholine-stimulated Ca^2+ levels using FLIPR.
Compounds are prepared and subjected to a preincubation period of 4 min. Thereafter, a single EC20 concentration of acetylcholine is added to each well (3 nM final). The intracellular Ca^2+ level of each sample is measured and compared to an acetylcholine control to determine any modulatory activity.
Cells: CHOnfat/hM1, hM2, hM3 or hM4 cells are plated 24 hr before the assay at a density of 18,000 cells/well (100 μL) in a 384 well plate. CHOnfat/hM1 and CHOnfat/hM3 Growth Medium: 90% DMEM (Hi Glucose); 10% HI FBS; 2 mM L-glutamine; 0.1 mM NEAA; Pen-Strep; and 1 mg/ml Geneticin, are added. For M2Gqi5CHOnfat and M4Gqi5CHOnfat cells, an additional 600 ug/ml hygromycin is added.
Equipment: 384 well plate, 120 μL addition plate; 96-well Whatman 2 ml Uniplate Incubator, 37° C., 5% CO2; Skatron EMBLA-384 Plate Washer; Multimek Pipetting System; Genesis Freedom 200 System; Mosquito System; Temo Nanolitre Pipetting System; and FLIPR^384 Fluorometric Imaging Plate Reader System are used.
Buffers. Assay Buffer: Hanks Balanced Salt Solution, with 20 mM Hepes, 2.5 mM Probenecid (Sigma P-8761) first dissolved in 1 N NaOH, 1% Bovine Serum Albumin (Sigma A-9647). Dye Loading Buffer: Assay Buffer plus 1% Fetal Bovine Serum and Fluo-4AM/Pluronic Acid Mixture. 2 mM Fluo-4AM ester stock in DMSO (Molecular Probes F-14202) Concentration of 2 μM in buffer for a final concentration of 1 μM in Assay. 20% Pluronic Acid Solution stock, with concentration of 0.04% in Buffer, 0.02% in Assay.
65 μL of 2 mM Fluo-4AM are mixed with 130 μL of 20% Pluronic Acid. The resulting solution and 650 μL FBS is added to the assay buffer for a total volume of 65 mL. Positive Controls: 4-Br-A23187: 10 mM in DMSO; final concentration 10 μM. Acetylcholine: 10 mM in water, working stock at both 20 μM and 30 μM in assay buffer, final concentration of 10 μM. This is used to check the maximum stimulation of the CHOK1/hM1 cells. 20 μM (2×) acetylcholine is added in the preincubation part of the assay, and the 30 μM (3×) stock is added in the second part. (EC20)Acetylcholine: 10 mM in water, working stock of 9 nM (3×), and final concentration in assay is 3 nM. This is used after the preincubation with test compounds. Addition of the EC20 Acetylcholine to each well with a test compound will ascertain any modulator activity. 24 wells contain 3 nM Acetylcholine alone as a control.
Screening Plate: Compounds are titrated in 96-well plates (columns 2-11), 100% DMSO, started at a concentration of 15 mM (150× stock concentration), and 3-fold serial dilutions using Genesis Freedom200 System. Four 96-well plates are combined into a 384-well plate using Mosquito Nanolitre Pipetting System by transferring 1 μl of serial diluted compounds to each well, and 1 mM acetylcholine (100× stock concentration) were added as a control. Using Temo, 49 μl assay buffer is added to each well of the 384-well plate right before assay.
In a 96-well Whatman 2 ml Uniplate, 9 nM Acetylcholine (3×) is pipetted into wells corresponding to the screening compounds, and into control wells. The 30 μM acetylcholine control (3×) is added into control wells, and the 3× agonist plate is transferred into a 384 well plate.
Cells are washed three times with 100 μL of buffer, leaving 30 μL of buffer in each well. Using Multimek, 30 μL of Dye Loading Buffer is added into each well and incubated at 37° C., 5% CO2 for up to one hr.
After 60 min, the cells are washed three times with 100 μL of buffer, leaving 30 μL of buffer in each well. The cell plate, screening plate, and agonist addition plates are placed on the platform in the FLIPR and the door closed. A signal test to check background fluorescence and basal fluorescence signal is performed. Laser intensity is adjusted if necessary. […]
With `N#Cc1ccc(Cc2cc3c(=O)n([C@H]4CCOC[C@@H]4O)cnc3c3ccccc23)cn1` [Example 8, 5-({3-[(3R,4S)-3-Hydroxytetrahydro-2H-pyran-4-yl]-4-oxo-3,4-dihydrobenzo[h]quinazolin-6-yl}methyl)pyridine-2-carbonitrile] the EC50 was 31 nM. With `O=c1c2cc(Cc3ccc(O)nc3)c3ccccc3c2ncn1[C@H]1CCOC[C@@H]1O` [Example 28, 6-[(6-Hydroxypyridin-3-yl)methyl]-3-[(3R,4S)-3-hydroxytetrahydro-2H-pyran-4-yl]benzo[h]quinazolin-4(3H)-one] the EC50 was 27 nM. In the case of `COc1ccc(Cc2cc3c(=O)n([C@H]4CCOC[C@@H]4O)cnc3c3ccccc23)cn1` [Example 7, 3-[(3R,4S)-3-Hydroxytetrahydro-2H-pyran-4-yl]-6-[(6-methoxypyridin-3-yl)methyl]benzo[h]quinazolin-4(3H)-one], the EC50 is reported as 16.8 nM. Compound `O=c1c2cc(Cc3ccc(Cl)nc3)c3ccccc3c2ncn1[C@H]1CCNC[C@@H]1O` (racemic) [Example 35, rac-6-[(6-Chloropyridin-3-yl)methyl]-3-[(3R,4R)-3-hydroxypiperidin-4-yl]benzo[h]quinazolin-4(3)H-one] has an EC50 of 54 nM. `CSc1ccc(Cc2cc3c(=O)n([C@H]4CCOC[C@@H]4O)cnc3c3ccccc23)cn1` [Example 2, 3-[(3R,4S)-3-Hydroxytetrahydro-2H-pyran-4-yl]-6-{[(6-methylthio)pyridin-3-yl)methyl]benzo[h]quinazolin-4(3H)-one] was tested, and the EC50 was 14 nM. For `CCOc1ccc(Cc2cc3c(=O)n([C@H]4CCOC[C@@H]4O)cnc3c3ccccc23)cn1` [Example 27, 6-[(6-Ethyoxypyridin-3-yl)methyl]-3-[(3R,4S)-3-hydroxytetrahydro-2H-pyran-4-yl]benzo[h]quinazolin-4(3H)-one], the EC50 was 27 nM. Work on `Cc1ccc(Cc2cc3c(=O)n([C@H]4CCOC[C@@H]4O)cnc3c3ccccc23)cn1` [Example 3, 3-[(3R,4S)-3-Hydroxytetrahydro-2H-pyran-4-yl]-6-[(6-methylpyridin-3-yl)methyl]benzo[h]quinazolin-4(3H)-one] yielded an EC50 of 15 nM. For `O=c1c2cc(Cc3cc[n+]([O-])c(Cl)c3)c3ccccc3c2ncn1[C@H]1CCOC[C@@H]1O` [Example 24, 6-[(2-Chloro-1-oxidopyridin-4-yl)methyl]-3-[(3R,4S)-3-hydroxytetrahydro-2H-pyran-4-yl]benzo[h]quinazolin-4(3H)-one], the EC50 was 58 nM. With `CN(C)C(=O)c1ccc(Cc2cc3c(=O)n([C@H]4CCOC[C@@H]4O)cnc3c3ccccc23)cn1` [Example 19, 5-({3-[(3R,4S)-3-Hydroxytetrahydro-2H-pyran-4-yl]-4-oxo-3,4-dihydrobenzo[h]quinazolin-6-yl}methyl)-N,N-dimethylpyridine-2-carboxamide] the EC50 was 318 nM. Work on `COC(C)(C)c1ccc(Cc2cc3c(=O)n([C@H]4CCOC[C@@H]4O)cnc3c3ccccc23)cn1` [Example 20, 3-[(3R,4S)-3-Hydroxytetrahydro-2H-pyran-4-yl]-6-{[6-(1-methoxy-1-methylethyl)pyridine-3-yl]methyl}benzo[h]quinazolin-4(3H)-one] yielded an EC50 of 45 nM. `O=c1c2cc(Cc3ccc(Cl)nc3)c3ccccc3c2ncn1[C@H]1CCOC[C@@H]1O` [Example 1, 6-[(6-Chloropyridin-3-yl)methyl]-3-[(3R,4S)-3-hydroxytetrahydro-2H-pyran-4-yl]benzo[h]quinazolin-4(3H)-one] gave an EC50 of 13 nM. Compound `O=c1c2cc(Cc3ccc(CF)nc3)c3ccccc3c2ncn1[C@H]1CCOC[C@@H]1O` [Example 22, 6-{[6-(Fluoromethyl)pyridine-3-yl]methyl}-3-[(3R,4S)-3-hydroxytetrahydro-2H-pyran-4-yl]benzo[h]quinazolin-4(3H)-one] has an EC50 of 23 nM. Compound `O=c1c2cc(Cc3ccnc(F)c3)c3ccccc3c2ncn1[C@H]1CCOC[C@@H]1O` [Example 25, 6-[(2-Fluoropyridin-4-yl)methyl]-3-[(3R,4S)-3-hydroxytetrahydro-2H-pyran-4-yl]benzo[h]quinazolin-4(3H)-one] has an EC50 of 15 nM. For `CCn1ccc2c(Cc3cc4c(=O)n([C@H]5CCOC[C@@H]5O)cnc4c4ccccc34)ccnc21` [Example 32, 6-[(1-Ethyl-1H-pyrrolo[2,3-b]pyrdin-4-yl)methyl]-3-[(3R,4S)-3-hydroxytetrahydro-2H-pyran-4-yl]benzo[h]quinazolin-4(3H)-one], the EC50 was 32 nM. `O=c1c2cc(Cc3ccc(C(F)F)nc3)c3ccccc3c2ncn1[C@H]1CCOC[C@@H]1O` [Example 23, 6-{[6-(Difluoromethyl)pyridine-3-yl]methyl}-3-[(3R,4S)-3-hydroxytetrahydro-2H-pyran-4-yl]benzo[h]quinazolin-4(3H)-one] gave an EC50 of 14 nM. Compound `O=c1c2cc(Cc3ccc(OC(F)F)nc3)c3ccccc3c2ncn1[C@H]1CCOC[C@@H]1O` [Example 29, 6-{[6-(Difluoromethoxy)pyridine-3-yl]methyl}-3-[(3R,4S)-3-hydroxytetrahydro-2H-pyran-4-yl]benzo[h]quinazolin-4(3H)-one] has an EC50 of 39 nM. Compound `COc1cc(Cc2cc3c(=O)n([C@H]4CCOC[C@@H]4O)cnc3c3ccccc23)ccn1` [Example 26, 3-[(3R,4S)-3-Hydroxytetrahydro-2H-pyran-4-yl]-6-[(2-methoxypyridin-4-yl)methyl]benzo[h]quinazolin-4(3H)-one] has an EC50 of 34 nM. In the case of `O=c1c2cc(Cc3cccnc3)c3ccccc3c2ncn1[C@H]1CCOC[C@@H]1O` [Example 6], the EC50 is reported as 23 nM. With `O=c1c2cc(Cc3ccc(N4CCOCC4)cc3)c3ccccc3c2ncn1[C@H]1CCOC[C@@H]1O` [Example 12, 3-[(3R,4S)-3-Hydroxytetrahydro-2H-pyran-4-yl]-6-(4-morpholin-4-ylbenzyl)benzo[h]quinazolin-4(3H)-one] the EC50 was 21 nM. In the case of `CC(=O)c1ccc(Cc2cc3c(=O)n([C@H]4CCOC[C@@H]4O)cnc3c3ccccc23)cn1` [Example 10, 6-[(6-Acetylpyridin-3-yl)methyl]-3-[(3R,4S)-3-hydroxytetrahydro-2H-pyran-4-yl]benzo[h]quinazolin-4(3H)-one], the EC50 is reported as 30 nM. Compound `CC(C)(O)c1ccc(Cc2cc3c(=O)n([C@H]4CCOC[C@@H]4O)cnc3c3ccccc23)cn1` [Example 11, 6-{[6-(1-Hydroxy-1-methylethyl)pyridine-3-yl]methyl}-3-[(3R,4S)-3-hydroxytetrahydro-2H-pyran-4-yl]benzo[h]quinazolin-4(3H)-one] has an EC50 of 76 nM. Compound `CS(=O)(=O)c1ccc(Cc2cc3c(=O)n([C@H]4CCOC[C@@H]4O)cnc3c3ccccc23)cn1` [Example 16, 3-[(3R,4S)-3-Hydroxytetrahydro-2H-pyran-4-yl]-6-{[6-(methylsulfonyl)pyridine-3-yl]methyl}benzo[h]quinazolin-4(3H)-one] has an EC50 of 53 nM.
